Experimental data reported in article PMC9468151, “Identification of a binding site on soluble RANKL that can be targeted to inhibit soluble RANK-RANKL interactions and treat osteoporosis” (Nature Communications, 2022).
“And” between values parts separate entries of the source, which are not always exact repeats. Equal values may be shown once.

Legend:
[1] = test system: sRANKL induced osteoclast differentiation; assay: In vitro anti-osteoclastogenesis activity determination (TRAP staining); format: cell-based, mouse; design: key to inhibition of osteoclastogenesis, dose-response (fig. S2a): % inhibition = 100 − (treated−unstimulated)/(untreated−unstimulated)×100; conditions: for IC50: 120 h, BMMs, M-CSF + 100 ng/mL sRANKL, 5 days, TRAP staining, read-out: OC IC50 (anti-osteoclastogenesis activity)
Summary of the method: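 IC50 came from a nonlinear curve fit of percent inhibition, computed from TRAP-positive osteoclast counts against unstimulated and untreated wells. Cells were murine BMMs with M-CSF (10 ng/mL), exposed 5 days to 100 ng/mL sRANKL and nine compound levels, re-dosed every 2 days, in triplicate.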

[2] = In vitro cytotoxicity assay (MTT); format: cell-based, mouse; conditions: mouse, RAW264.7 cells; for viability at 24 h, 0.08 μM: conc. 0.08 μM; for viability at 24 h, 0.08 μM / viability at 24 h, 0.28 μM / viability at 24 h, 0.92 μM / viability at 24 h, 3.03 μM / viability at 24 h, 10 μM: read-out: cell viability relative to 0 μM (fig. S5e); for viability at 24 h, 0.28 μM: conc. 0.28 μM; for viability at 24 h, 0.92 μM: conc. 0.92 μM; for viability at 24 h, 3.03 μM: conc. 3.03 μM; for viability at 24 h, 10 μM: conc. 10 μM; for CC50 at 24 h: RAW264.7, MTT
Summary of the method: (§1)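 Log-phase cells were seeded at 6 × 10^3 per well and incubated 24 h, with viability read by MTT. Growth inhibition (%) was calculated from OD relative to vehicle wells. CC50 came from nonlinear regression curve fitting.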

RAW264.7 cells = assay: In vitro cytotoxicity assay (MTT); format: cell-based, mouse
Summary of the method: as §1

C3H10T1/2 = C3H10T1/2 proliferation and osteoblastic mineralization; format: cell-based, mouse; conditions: C3H10T1/2 or human primary osteoblasts, osteogenic differentiation medium
Method: Supplementary Fig.5. In Vitro Activity Evaluation and Signal Pathway Study of compound S3-15. a Western blot of PI3K and AKT phosphorylation in RAW264.7 cells treating with or without S315 and sRANKL at different point-in-time. b EC50 curve and representative OC microphotographs of mature osteoclasts apoptosis assay with S3-15. n=3 biological replicates for each concentration. EC50 values were calculated by GraphPad Prism 8 software. c EC50 curve and representative OC microphotographs of mature osteoclasts apoptosis assay with S3, S3-03 and S3-05. n=3 biological replicates for each concentration. EC50 values were calculated by GraphPad Prism […]
pits in dose-dependent manner (mouse BMMs). e Precursor osteoblasts C3H10T12 proliferation-promoting of S3, S3-05 and S3-15. f Osteoblastic mineralization after treatment with S3, S3-05 and S3-15. C3H10T12 cells were cultured in osteoblast induction differentiation medium with or without treatment for 14 days and determinate of calcium deposition in differentiated osteoblasts by Alizarin red staining. Error bars represent ± s.d. n=3. Statistical difference was determined by unpaired two-tailed Student’s t test. Significant difference p value is < 0.05. Scale […]
(1 picture or pasted object on this page, not shown here)

OVX rats = assay: Osteoporosis therapeutic study in OVX rats (micro-CT); format: in vivo, rat; design: Tb.N: unit not given beside the values; conditions: for BV/TV / Tb.N / Tb.Sp / Tb.Th: OVX + compound, individual animals; for BV/TV of OVX rats: oral 10 mg/kg/day, 12 weeks, in words
Method: Female SD rats or C57BL/6 mice were cared until they grown up to 6 months old or 10 weeks old, respectively. Then we subjected them to either bilateral ovariectomy or sham operation after anesthesia with 10% chloral hydrate (0.3 mL/100 g). Then all the rats or mice were intramuscular injected of penicillin to prevent infection in the first week of surgery. For rat experiments, after 12 weeks of operation, 3 rats from sham-operated or ovariectomized groups were random selected to determine bone mass by micro-CT imaging biopsy to verify successful produced bone loss(data unshown). Then the OVX rats were individually administrated with S3-15, S3, and S3-05 orally with (10 mg/kg/day) for another 12 weeks. For mouse experiments, after 4 weeks of surgery, the OVX mice were treated with 10 mg/kg/day S3-15 for another 4 weeks.
The weight of rats or mice were recorded every week in the treatment period. After treatment, the rats were harvested, the serum, heart, liver, spleen, lung, kidney, thymus, and femurs were all collected and subjected to subsequent analysis. The right femurs of rats or mice were cleaned excess soft tissue, fixed in 10% formalin, and processed them for microcomputed tomography (micro-CT) analysis. Left mice femurs were collected and excarnate for biomechanical strength testing. Mice peripheral blood were as well as collected for flow cytometry analyzing.
The right femurs of rats or mice were further analyzed with micro-CT on Inveon PET/CT (Siemens, Germany). We used micro-CT to scan the femur from the femoral head to the femoral condyle, using 19 μm resolution, 80 kV 500uA, 360 projection, 3000-6000 image threshold, full rotation cone beam. Three-dimensional reconstruction and histomorphometric analyses of trabecular bone were conducted with the IAW (Inveon analysis workstation) analysis software. The trabecular extended 1 mm (rat) or 0.5 mm (mice) proximally to the end of the distal growth plate over 2 mm (rats) or 1 mm (mice) toward the diaphysis was selected as the region of interest (ROI) for the analysis. The resulting two-dimensional images of trabecular bone in relative cross sections were shown in grayscale. Trabecular bone parameters were measured including bone volume/tissue volume (BV/TV), bone surface area/bone volume (BS/BV), trabecular number (Tb.N), trabecular thickness (Tb.Th), trabecular separation(Tb.Sp) and trabecular pattern factor(Tb.P.F).

[3] = Mus musculus, Osteoclast, conc. 0.0843226 μM, three replicate columns, read-out: inhibition of osteoclastogenesis, dose-response (fig. S2a)
[4] = Mus musculus, Osteoclast, conc. 0.278265 μM, three replicate columns, read-out: inhibition of osteoclastogenesis, dose-response (fig. S2a)
[5] = Mus musculus, Osteoclast, conc. 0.918274 μM, three replicate columns, read-out: inhibition of osteoclastogenesis, dose-response (fig. S2a)
[6] = Mus musculus, Osteoclast, conc. 3.0303 μM, three replicate columns, read-out: inhibition of osteoclastogenesis, dose-response (fig. S2a)
[7] = Mus musculus, Osteoclast, conc. 10 μM, three replicate columns, read-out: inhibition of osteoclastogenesis, dose-response (fig. S2a)
[8] = Mus musculus, Osteoclast, conc. 33 μM, three replicate columns, read-out: inhibition of osteoclastogenesis, dose-response (fig. S2a)
[9] = conc. 0.0023464 μM, three replicate columns
[10] = conc. 0.00774313 μM, three replicate columns
[11] = conc. 0.0255523 μM, three replicate columns
[12] = conc. 0.0843226 μM, three replicate columns
[13] = conc. 0.278265 μM, three replicate columns
[14] = conc. 0.918274 μM, three replicate columns
[15] = conc. 3.0303 μM, three replicate columns

SMILES	IC50 ([1]; Mus musculus, Osteoclast)	inhibition at 0.0843226 µM [1, 3]	inhibition at 0.278265 µM [1, 4]	inhibition at 0.918274 µM [1, 5]	inhibition at 3.0303 µM [1, 6]	inhibition at 10 µM [1, 7]	inhibition at 33 µM [1, 8]	inhibition of osteoclastogenesis, dose-response (fig. S2a) [1, 9]	inhibition of osteoclastogenesis, dose-response (fig. S2a) [1, 10]	inhibition of osteoclastogenesis, dose-response (fig. S2a) [1, 11]	inhibition of osteoclastogenesis, dose-response (fig. S2a) [1, 12]	inhibition of osteoclastogenesis, dose-response (fig. S2a) [1, 13]	inhibition of osteoclastogenesis, dose-response (fig. S2a) [1, 14]	inhibition of osteoclastogenesis, dose-response (fig. S2a) [1, 15]	viability at 24 h, 0.08 μM [2]	viability at 24 h, 0.28 μM [2]	viability at 24 h, 0.92 μM [2]	viability at 24 h, 3.03 μM [2]	viability at 24 h, 10 μM [2]	CC50 at 24 h [2]	also measured
CCOC(=O)c1sc(NC(=O)/C(=N/Nc2ccc(O)cc2C(=O)O)C(C)=O)nc1C [S3-05]	0.41 µM	24.5%	45.8%	58.5%	78.9%	86.2%	98.5%	5.216 and -0.5015 and 0.1003	7.021 and 8.826	18.7563 and 13.6409	23.8716	51.2538 and 38.6159	65.3962 and 65.0953	74.4233 and 77.4323	98.4%	118%	132%	127%	113%	93.9 µM	inhibition at 0.00774313 µM ([1]; Mus musculus, Osteoclast, conc. 0.00774313 μM, three replicate columns, read-out: inhibition of osteoclastogenesis, dose-response (fig. S2a)): 10.9%; inhibition at 0.0255523 µM ([1]; Mus musculus, Osteoclast, conc. 0.0255523 μM, three replicate columns, read-out: inhibition of osteoclastogenesis, dose-response (fig. S2a)): 21.5%; inhibition of osteoclastogenesis, dose-response (fig. S2a) ([1]; conc. 10 μM, three replicate columns): 87.0612 and 88.2648; inhibition of osteoclastogenesis, dose-response (fig. S2a) ([1]; conc. 33 μM, three replicate columns): 99.3982 and 99.6991; cell viability relative to 0 μM (fig. S5e) (RAW264.7 cells; conc. 0.08 μM): 112.115 and 113.045; cell viability relative to 0 μM (fig. S5e) (RAW264.7 cells; conc. 0.28 μM): 104.323 and 119.674; cell viability relative to 0 μM (fig. S5e) (RAW264.7 cells; conc. 0.92 μM): 131.188 and 122; cell viability relative to 0 μM (fig. S5e) (RAW264.7 cells; conc. 3.03 μM): 125.024 and 127.118; cell viability relative to 0 μM (fig. S5e) (RAW264.7 cells; conc. 10 μM): 125.722 and 115.72; cell proliferation and mineralization (C3H10T1/2): increase cell proliferation and mineralization; BV/TV (OVX rats): 0.3016 and 0.3941 and 0.3094 and 0.3401 and 0.3769 and 0.3486 and 0.3669 and 0.2495; Tb.N (OVX rats): 0.07827 and 0.1011 and 0.07596 and 0.08201 and 0.08333 and 0.08879 and 0.08221 and 0.07582; Tb.Sp (OVX rats): 0.1812 and 0.1554 and 0.1695 and 0.1592 and 0.1377 and 0.1659 and 0.1419 and 0.2281; Tb.Th (OVX rats): 3.854 and 3.899 and 4.073 and 4.146 and 4.523 and 3.9259 and 4.463 and 3.291; BV/TV of OVX rats (OVX rats): increased
CCOC(=O)c1sc(NC(=O)/C(=N/Nc2ccccc2C(=O)O)C(C)=O)nc1C [S3, (E)-2-(2-(1-((5-(ethoxycarbonyl)-4-methylthiazol-2-yl)amino)-1,3-dioxobutan-2-ylidene) hydrazinyl) benzoic acid]	0.096 µM	55.6%	62.8%	74.4%	82.5%	95.5%	100%	14.7982 and 23.3184 and -0.4484	4.4843 and 2.691 and 14.7982	42.1525 and 52.4664 and 21.0762	52.4664 and 43.4978	63.2287 and 72.1973	71.7489 and 80.2691	79.8206 and 91.0314	105%	107%	111%	121%	120%	44.6 µM	cell viability relative to 0 μM (fig. S5e) (RAW264.7 cells; conc. 0.08 μM): 118.628 and 117.348; cell viability relative to 0 μM (fig. S5e) (RAW264.7 cells; conc. 0.28 μM): 120.489 and 117.697; cell viability relative to 0 μM (fig. S5e) (RAW264.7 cells; conc. 0.92 μM): 125.722 and 127.234; cell viability relative to 0 μM (fig. S5e) (RAW264.7 cells; conc. 3.03 μM): 128.164 and 131.886; cell viability relative to 0 μM (fig. S5e) (RAW264.7 cells; conc. 10 μM): 130.258 and 129.909; cell proliferation and mineralization (C3H10T1/2): increase cell proliferation and mineralization; BV/TV (OVX rats): 0.3479 and 0.4471 and 0.777 and 0.287 and 0.2327 and 0.4826 and 0.4913; Tb.N (OVX rats): 0.07107 and 0.08431 and 0.1472 and 0.07083 and 0.06968 and 0.09727 and 0.1011; Tb.Sp (OVX rats): 0.1332 and 0.1043 (2×) and 0.04227 and 0.1759 and 0.2298 and 0.1047; Tb.Th (OVX rats): 4.895 and 5.303 and 5.277 and 4.053 and 3.339 and 4.961 and 4.861; BV/TV of OVX rats (OVX rats): increased
